Experimental data published in the NIST ThermoML archive (doi:10.1016/j.fluid.2007.03.030).
± gives the expanded uncertainty stated by the source.

How the values were obtained:
[1] = Liquid; for mass density: 298.15 K, 101.33 kPa; for vapor or sublimation pressure: Ebulliometric method (Recirculating still)
[2] = refractive index (Na D-line) (dimensionless); conditions: 298.15 K; 101.33 kPa; Liquid; Standard Abbe refractometry

CCOCCO [2-ethoxyethan-1-ol]
Conditions | mass density [kg/m3] | refractive index
[1] | 925.38 ± 0.29 | –
[2] | – | 1.4062 ± 0.0005

[1]
Conditions | vapor or sublimation pressure [kPa]
345.63 K | 9.97 ± 0.2
349.72 K | 11.98 ± 0.2
353.3 K | 13.98 ± 0.2
356.42 K | 15.98 ± 0.2
359.27 K | 17.98 ± 0.2
363.08 K | 20.96 ± 0.2
365.34 K | 22.97 ± 0.2
367.46 K | 24.98 ± 0.2
370.33 K | 27.95 ± 0.2
373 K | 30.94 ± 0.2
375.49 K | 33.97 ± 0.2
378.51 K | 37.93 ± 0.2
381.26 K | 41.98 ± 0.2
383.78 K | 45.88 ± 0.2
386.12 K | 49.91 ± 0.2
388.87 K | 54.89 ± 0.21
391.39 K | 59.83 ± 0.21
393.83 K | 64.82 ± 0.21
396.01 K | 69.65 ± 0.21
398.1 K | 74.57 ± 0.21
400.12 K | 79.47 ± 0.21
402.11 K | 84.74 ± 0.21
403.97 K | 89.84 ± 0.21
405.76 K | 94.91 ± 0.21
407.95 K | 101.3 ± 0.21

CCCOCCC [dipropyl ether]
Conditions | mass density [kg/m3] | refractive index
[1] | 741.81 ± 0.56 | –
[2] | – | 1.3784 ± 0.0005

Conditions | vapor or sublimation pressure [kPa]
[1], 363.16 K | 101.3 ± 0.5

CCCO [propan-1-ol]
Conditions | mass density [kg/m3] | refractive index
[1] | 799.62 ± 0.48 | –
[2] | – | 1.3836 ± 0.0005

Conditions | vapor or sublimation pressure [kPa]
[1], 369.75 K | 101.3 ± 0.5
